molecular target: PARG (Homo sapiens (Human), UniProt Q86W56); assay: PARG TFMU assay (4-(trifluoromethyl)umbelliferone substrate); type: biochemical; details: PARG 250 pM or 2 nM, 10-point dose response
Procedure: Example C. Inhibition of PARG TEMU Assay
The ability of the compounds of the Examples to inhibit PARG activity in 4. (trifluoromethyl)umbelliferone (TFMU) assay was determined as described below. PARG inhibitors were added into 384 well plate for a 10-point dose response curve at 1:3 dilutions. TFMU PARG substrate and PARG (250 pM or 2 nM) were then added to the plate to initiate enzymatic reaction. After incubation with the reagent, […] was read. IC50 values were calculated using set control points for 100% inhibition as no enzyme and 0% inhibition 250 pM or 2 nM of PARG enzyme.

Sequence of PARG (Q86W56 whole entry): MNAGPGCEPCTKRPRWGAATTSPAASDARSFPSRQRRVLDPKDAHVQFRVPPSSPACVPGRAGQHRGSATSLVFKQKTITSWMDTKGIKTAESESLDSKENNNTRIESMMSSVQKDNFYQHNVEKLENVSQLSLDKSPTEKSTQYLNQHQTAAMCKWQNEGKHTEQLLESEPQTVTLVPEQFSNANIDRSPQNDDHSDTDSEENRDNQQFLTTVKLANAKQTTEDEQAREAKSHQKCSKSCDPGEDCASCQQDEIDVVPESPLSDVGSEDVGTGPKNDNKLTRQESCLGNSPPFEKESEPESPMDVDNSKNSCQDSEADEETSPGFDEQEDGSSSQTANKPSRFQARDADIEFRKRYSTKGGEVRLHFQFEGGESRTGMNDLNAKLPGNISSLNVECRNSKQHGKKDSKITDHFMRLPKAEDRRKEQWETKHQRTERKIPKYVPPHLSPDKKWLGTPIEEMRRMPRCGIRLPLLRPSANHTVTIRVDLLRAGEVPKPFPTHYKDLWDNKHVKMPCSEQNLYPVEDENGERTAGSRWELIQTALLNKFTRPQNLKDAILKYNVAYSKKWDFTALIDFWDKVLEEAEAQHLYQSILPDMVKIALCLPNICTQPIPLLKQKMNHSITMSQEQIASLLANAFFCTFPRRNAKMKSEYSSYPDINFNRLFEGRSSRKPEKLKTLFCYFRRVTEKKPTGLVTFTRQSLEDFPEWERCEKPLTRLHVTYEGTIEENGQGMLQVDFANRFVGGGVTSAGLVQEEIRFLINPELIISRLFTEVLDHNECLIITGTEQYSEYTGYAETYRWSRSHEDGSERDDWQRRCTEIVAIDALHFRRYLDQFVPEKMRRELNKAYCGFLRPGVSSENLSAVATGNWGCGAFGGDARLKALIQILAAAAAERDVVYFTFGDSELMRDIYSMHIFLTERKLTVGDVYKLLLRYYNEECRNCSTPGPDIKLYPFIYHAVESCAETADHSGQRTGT

| SMILES | IC50 [nM] |
| --- | --- |
| Cc1nnc(-n2ncc3c(N4CCN(C(=O)C(C)C)CC4)cc(S(=O)(=O)NC4(C)COC4)cc32)s1 [Example 45, 4-(4-isobutyrylpiperazin-1-yl)-1-(5-methyl-1,3,4-thiadiazol-2-yl)-N-(3-methyloxetan-3-yl)-1H-indazole-6-sulfonamide] | < 50 |
| CC(C)C(=O)N1CCN(c2cc(S(=O)(=O)NC3COC3)cc3c2cnn3-c2nnc(C(F)F)s2)CC1 [Example 29, 1-(5-(difluoromethyl)-1,3,4-thiadiazol-2-yl)-4-(4-isobutyrylpiperazin-1-yl)-N-(oxetan-3-yl)-1H-indazole-6-sulfonamide] | 50 to 500 |
| N#CC1(NS(=O)(=O)c2cc(N3CCN(C(=O)C4CCCC4)CC3)c3cnn(-c4nnc(C(F)F)s4)c3c2)COC1 [Example 40, N-(3-cyanooxetan-3-yl)-4-(4-(cyclopentanecarbonyl)piperazin-1-yl)-1-(5-(difluoromethyl)-1,3,4-thiadiazol-2-yl)-1H-indazole-6-sulfonamide] | < 50 |
| CN(C)c1cc(S(=O)(=O)NC2(C)COC2)cc2c1cnn2-c1nnc(C(F)F)s1 [Example 26, 1-(5-(difluoromethyl)-1,3,4-thiadiazol-2-yl)-4-(dimethylamino)-N-(3-methyloxetan-3-yl)-1H-indazole-6-sulfonamide] | 50 to 500 |
| CN(CC(F)F)C(=O)N1CCN(c2cc(S(=O)(=O)NC3(C)COC3)cc3c2cnn3-c2nnc(C(F)F)s2)CC1 [Example 37, N-(2,2-difluoroethyl)-4-(1-(5-(difluoromethyl)-1,3,4-thiadiazol-2-yl)-6-(N-(3-methyloxetan-3-yl)sulfamoyl)-1H-indazol-4-yl)-N-methylpiperazine-1-carboxamide] | < 50 |
| CC(C)C(=O)N1CCN(c2cc(S(=O)(=O)NC3(C)COC3)cc3c2cnn3-c2nnc(CS(C)(=O)=O)s2)CC1 [Example 31, 4-(4-isobutyrylpiperazin-1-yl)-N-(3-methyloxetan-3-yl)-1-(5-((methylsulfonyl)methyl)-1,3,4-thiadiazol-2-yl)-1H-indazole-6-sulfonamide] | < 50 |
| CC(C)C(=O)N1CCN(c2cc(S(=O)(=O)NC3(CF)COC3)cc3c2cnn3-c2nncs2)CC1 [Example 44, N-(3-(fluoromethyl)oxetan-3-yl)-4-(4-isobutyrylpiperazin-1-yl)-1-(1,3,4-thiadiazol-2-yl)-1H-indazole-6-sulfonamide] | < 50 |
| Cc1ncc(Cn2c(=O)[nH]c3ccc(S(=O)(=O)NC4(C#N)COC4)cc3c2=O)s1 [Example 25A, N-(3-cyanooxetan-3-yl)-3-((2-methylthiazol-5-yl)methyl)-2,4-dioxo-1,2,3,4-tetrahydroquinazoline-6-sulfonamide] | 50 to 500 |
| N#CC1(NS(=O)(=O)c2cc(N3CCN(C(=O)C4CC4)CC3)c3cnn(-c4nnc(C(F)F)s4)c3c2)COC1 [Example 39, N-(3-cyanooxetan-3-yl)-4-(4-(cyclopropanecarbonyl)piperazin-1-yl)-1-(5-(difluoromethyl)-1,3,4-thiadiazol-2-yl)-1H-indazole-6-sulfonamide] | < 50 |
| Cc1ncc(Cn2c(=O)c3cc(S(=O)(=O)NC4(C#N)COC4)ccc3n(Cc3sc(C)nc3C)c2=O)s1 [Example 25B, N-(3-cyanooxetan-3-yl)-1-((2,4-dimethylthiazol-5-yl)methyl)-3-((2-methylthiazol-5-yl)methyl)-2,4-dioxo-1,2,3,4-tetrahydroquinazoline-6-sulfonamide] | 50 to 500 |
| CN(CC(F)F)C(=O)N1CCN(c2cc(S(=O)(=O)NC3(C#N)COC3)cc3c2cnn3-c2nnc(C(F)F)s2)CC1 [Example 41, 4-(6-(N-(3-cyanooxetan-3-yl)sulfamoyl)-1-(5-(difluoromethyl)-1,3,4-thiadiazol-2-yl)-1H-indazol-4-yl)-N-(2,2-difluoroethyl)-N-methylpiperazine-1-carboxamide] | < 50 |
| CC1(NS(=O)(=O)c2cc(Cl)c3cnn(-c4nnc(C(F)F)s4)c3c2)COC1 [Example 24] | 50 to 500 |
| CC(C)C(=O)N1CCN(c2cc(S(=O)(=O)NC3(C#N)COC3C)cc3c2cnn3-c2nnc(C(F)F)s2)CC1 (stereo not drawn) [Example 32, N-(3-cyano-2-methyloxetan-3-yl)-1-(5-(difluoromethyl)-1,3,4-thiadiazol-2-yl)-4-(4-isobutyrylpiperazin-1-yl)-1H-indazole-6-sulfonamide] | 50 to 500 |
| Cc1ncc(Cn2c(=O)[nH]c3ccc(S(=O)(=O)NC4(CF)COC4)cc3c2=O)s1 [Example 28A, N-(3-(fluoromethyl)oxetan-3-yl)-3-((2-methylthiazol-5-yl)methyl)-2,4-dioxo-1,2,3,4-tetrahydroquinazoline-6-sulfonamide] | 50 to 500 |
| Cc1nnc(-n2ncc3c(N4CCN(C(=O)C(C)C)CC4)cc(S(=O)(=O)NC4(CF)COC4)cc32)s1 [Example 42, N-(3-(fluoromethyl)oxetan-3-yl)-4-(4-isobutyrylpiperazin-1-yl)-1-(5-methyl-1,3,4-thiadiazol-2-yl)-1H-indazole-6-sulfonamide] | < 50 |
| CC1(NS(=O)(=O)c2ccc3cnn(-c4nnc(C(F)F)s4)c3c2)COC1 [Example 23, 1-(5-(difluoromethyl)-1,3,4-thiadiazol-2-yl)-N-(3-methyloxetan-3-yl)-1H-indazole-6-sulfonamide] | 50 to 500 |
| CC(C)C(=O)N1CCN(c2cc(S(=O)(=O)NC3(CF)COC3)cc3c2cnn3-c2nnc(C3CC3)s2)CC1 [Example 43, 1-(5-cyclopropyl-1,3,4-thiadiazol-2-yl)-N-(3-(fluoromethyl)oxetan-3-yl)-4-(4-isobutyrylpiperazin-1-yl)-1H-indazole-6-sulfonamide] | < 50 |
| CC(C)C(=O)N1CCN(c2cc(S(=O)(=O)NC3(C#N)COC3)cc3c2cnn3-c2nnc(C(F)F)s2)CC1 [Example 30, N-(3-cyanooxetan-3-yl)-1-(5-(difluoromethyl)-1,3,4-thiadiazol-2-yl)-4-(4-isobutyrylpiperazin-1-yl)-1H-indazole-6-sulfonamide] | < 50 |

Other lines, results leading:

| IC50 [nM] | SMILES |
| --- | --- |
| ≥ 5000 | C=C[C@@H]1C[C@@]1(C#N)NS(=O)(=O)c1ccc2c(c1)c(=O)n(CC)c(=O)n2CC (single isomer, unassigned) [Example 52] |
| 50 to 500 | CN1CCN(c2cc(S(=O)(=O)NC3(C)COC3)cc3c2cnn3-c2nnc(C(F)F)s2)CC1 [Example 48, 1-(5-(difluoromethyl)-1,3,4-thiadiazol-2-yl)-N-(3-methyloxetan-3-yl)-4-(4-methylpiperazin-1-yl)-1H-indazole-6-sulfonamide] |
| 500 to 5000 | CC1(NS(=O)(=O)c2cc(Cl)c3cnn(-c4nnc(C(F)F)s4)c3c2)CC1CCO (stereo not drawn) [Example 65, 4-chloro-1-(5-(difluoromethyl)-1,3,4-thiadiazol-2-yl)-N-(2-(2-hydroxyethyl)-1-methylcyclopropyl)-1H-indazole-6-sulfonamide] |
| < 50 | C=Cc1nnc(-n2ncc3c(N4CCN(C(=O)C(C)C)CC4)cc(S(=O)(=O)NC4(CF)COC4)cc32)s1 [Example 47, N-(3-(fluoromethyl)oxetan-3-yl)-4-(4-isobutyrylpiperazin-1-yl)-1-(5-vinyl-1,3,4-thiadiazol-2-yl)-1H-indazole-6-sulfonamide] |
| ≥ 5000 | CCn1c(=O)c2cc(S(=O)(=O)N[C@@H]3CC[C@H]3CO)ccc2n(CC)c1=O (single isomer, unassigned) [Example 74] |
| ≥ 5000 | CCn1c(=O)c2cc(S(=O)(=O)N[C@@]3(C#N)C[C@@H]3CO)ccc2n(CC)c1=O (single isomer, unassigned) [Example 78] |
| < 50 | CC(C)C(=O)N1CCN(c2cc(S(=O)(=O)NC3(C)COC3)cc3c2cnn3-c2nncs2)CC1 [Example 46, 4-(4-isobutyrylpiperazin-1-yl)-N-(3-methyloxetan-3-yl)-1-(1,3,4-thiadiazol-2-yl)-1H-indazole-6-sulfonamide] |
| 500 to 5000 | CCn1c(=O)c2cc(S(=O)(=O)NC3(C)CNC3)ccc2n(CC)c1=O [Example 49, 1,3-diethyl-N-(3-methylazetidin-3-yl)-2,4-dioxo-1,2,3,4-tetrahydroquinazoline-6-sulfonamide] |
| ≥ 5000 | C=C[C@@H]1C[C@]1(C#N)NS(=O)(=O)c1ccc2c(c1)c(=O)n(CC)c(=O)n2CC (single isomer, unassigned) [Example 51] |
| < 50 | C=Cc1nnc(-n2ncc3c(N4CCN(C(=O)C(C)C)CC4)cc(S(=O)(=O)NC4(C)COC4)cc32)s1 [Example 80, 4-(4-isobutyrylpiperazin-1-yl)-N-(3-methyloxetan-3-yl)-1-(5-vinyl-1,3,4-thiadiazol-2-yl)-1H-indazole-6-sulfonamide] |
| < 50 | CN(CC(F)F)C(=O)N1CCN(c2cc(S(=O)(=O)NC3(CF)COC3)cc3c2cnn3-c2nnc(C(F)F)s2)CC1 [Example 77, N-(2,2-difluoroethyl)-4-(1-(5-(difluoromethyl)-1,3,4-thiadiazol-2-yl)-6-(N-(3-(fluoromethyl)oxetan-3-yl)sulfamoyl)-1H-indazol-4-yl)-N-methylpiperazine-1-carboxamide] |
| 500 to 5000 | CCn1c(=O)c2cc(S(=O)(=O)N[C@@]3(C#N)CO[C@H]3C)ccc2n(CC)c1=O (single isomer, unassigned) [Example 61] |
| < 50 | CC(C)C(=O)N1CCN(c2cc(S(=O)(=O)NC3(C)COC3)cc3c2cnn3-c2nnc(C(F)F)s2)C[C@@H]1C (single isomer, unassigned) [Example 79] |
| ≥ 5000 | Cn1ncc2ccc(S(=O)(=O)NC3(C)COC3)cc21 [Example 72, 1-methyl-N-(3-methyloxetan-3-yl)-1H-indazole-6-sulfonamide] |
| < 50 | CC1(NS(=O)(=O)c2cc(N3CCN(C(=O)C4CCCC4)CC3)c3cnn(-c4nnc(C(F)F)s4)c3c2)COC1 [Example 76, 4-(4-(cyclopentanecarbonyl)piperazin-1-yl)-1-(5-(difluoromethyl)-1,3,4-thiadiazol-2-yl)-N-(3-methyloxetan-3-yl)-1H-indazole-6-sulfonamide] |

Source: patent US20250346564A1 (ARase Therapeutics Inc., priority 2022, published 2025)
